In patent US20210267203A1, “PESTICIDALLY ACTIVE AZOLE-AMIDE COMPOUNDS” (SYNGENTA PARTICIPATIONS AG, priority 2018, published 2021):

How the values were obtained:
Assay type in all cases: in vivo
[1] = tested on: Diabrotica Balteata (Corn Root Worm); assay: Example B1: Diabrotica balteata (corn root worm), maize sprouts sprayed, L2 larvae; conditions: 96 h, application rate 200 ppm, 4 days after infestation, read-out: effect in at least one of the two categories (mortality or growth inhibition)
Description: Example B1: Diabrotica Balteata (Corn Root Worm)
Maize sprouts placed onto an agar layer in 24-well microtiter plates were treated with aqueous test solutions prepared from 10,000 ppm DMSO stock solutions by spraying. After drying, the plates were infested with L2 larvae (6 to 10 per well). The samples were assessed for mortality and growth inhibition in comparison to untreated samples 4 days after infestation.
(§1) The following compounds gave an effect of at least 80% in at least one of the two categories (mortality or growth inhibition) at an application rate of 200 ppm: […]

[2] = tested on: Euschistus heros (Neotropical Brown Stink Bug); assay: Example B2: Euschistus heros (neotropical brown stink bug), soybean leaves sprayed, N2 nymphs; conditions: 120 h, application rate 200 ppm, 5 days after infestation, read-out: effect in at least one of the two categories (mortality or growth inhibition)
Description: Example B2: Euschistus heros (Neotropical Brown Stink Bug)
Soybean leaves on agar in 24-well microtiter plates were sprayed with aqueous test solutions prepared from 10,000 ppm DMSO stock solutions. After drying the leaves were infested with N2 nymphs. The samples were assessed for mortality and growth inhibition in comparison to untreated samples 5 days after infestation.
as §1

[3] = tested on: Plutella xylostella (Diamond Back Moth); assay: Example B5: Plutella xylostella (diamond back moth), artificial diet, 24-well, eggs; conditions: 192 h, application rate 200 ppm, 8 days after infestation, read-out: effect in at least one of the two categories (mortality or growth inhibition)
Description: Example B5: Plutella xylostella (Diamond Back Moth)
24-well microtiter plates with artificial diet were treated with aqueous test solutions prepared from 10,000 ppm DMSO stock solutions by pipetting. After drying, Plutella eggs were pipetted through a plastic stencil onto a gel blotting paper and the plate was closed with it. The samples were assessed for mortality and growth inhibition in comparison to untreated samples 8 days after infestation. The following compounds gave an effect of at least 80% in at least one of the two categories (mortality or growth inhibition) at an application rate of 200 ppm: […]

[4] = tested on: Myzus persicae (Green Peach Aphid); assay: Example B8: Myzus persicae (green peach aphid), intrinsic activity; conditions: 120 h, test rate 12 ppm, sucrose solution, 24-well, 5 days after infestation
Text: Example B8: Myzus persicae (Green Peach Aphid), Intrinsic Activity
Test compounds prepared from 10,000 ppm DMSO stock solutions were applied by pipette into 24-well microtiter plates and mixed with sucrose solution. The plates were closed with a stretched Parafilm. A plastic stencil with 24 holes was placed onto the plate and infested pea seedlings were placed directly on the Parafilm. The infested plate was closed with a gel blotting paper and another plastic stencil and then turned upside down. The samples were assessed for mortality 5 days after infestation.

[5] = tested on: Spodoptera littoralis (Egyptian Cotton Leaf Worm); assay: Example B10: Spodoptera littoralis (Egyptian cotton leaf worm), uptake by lettuce roots from agar, eggs; conditions: 144 h, test rate 12.5 ppm, lettuce root uptake, 6 days after infestation, read-out: effect in at least one of the three categories (mortality, anti-feeding, or growth inhibition)
Text: Example B10: Spodoptera littoralis (Egyptian Cotton Leaf Worm)
Test compounds were applied by pipette from 10,000 ppm DMSO stock solutions into 24-well plates and mixed with agar. Lettuce seeds were placed onto the agar and the multi well plate was closed by another plate which contained also agar. After 7 days the compound was absorbed by the roots and the lettuce grew into the lid plate. The lettuce leaves were then cut off into the lid plate. Spodoptera eggs were pipetted through a plastic stencil onto a humid gel blotting paper and the lid plate was closed with it. The samples were assessed for mortality, anti-feedant effect and growth inhibition in comparison to untreated samples 6 days after infestation.
The following compounds gave an effect of at least 80% in at least one of the three categories (mortality, anti-feeding, or growth inhibition) at a test rate of 12.5 ppm: […]

[6] = tested on: Myzus persicae (Green Peach Aphid); assay: Example B13: activity against Myzus persicae (green peach aphid), 96-well sucrose solution; conditions: 120 h, application rate 50 ppm, 5 days after infestation
Text: Example B13: Activity Against Myzus persicae (Green Peach Aphid)
Test compounds prepared from 10,000 ppm DMSO stock solutions were applied by a liquid handling robot into 96-well microtiter plates and mixed with a sucrose solution. Parafilm was stretched over the 96-well microtiter plate and a plastic stencil with 96 holes was placed onto the plate. Aphids were sieved into the wells directly onto the Parafilm. The infested plates were closed with a gel blotting card and a second plastic stencil and then turned upside down. The samples were assessed for mortality 5 days after infestation.

[7] = tested on: Plutella xylostella (Diamondback Moth); assay: Example B14: activity against Plutella xylostella (diamondback moth), 96-well artificial diet; conditions: 216 h, application rate 500 ppm, 9 days after infestation
Description: Example B14: Activity Against Plutella xylostella (Diamondback Moth)
96-well microtiter plates containing artificial diet were treated with aqueous test solutions, prepared from 10,000 ppm DMSO stock solutions, by a liquid handling robot. After drying, eggs (30 per well) were infested onto a netted lid which was suspended above the diet. The eggs hatch and L1 larvae move down to the diet. The samples were assessed for mortality 9 days after infestation.
The following compounds gave an effect of at least 80% average mortality at an application rate of 500 ppm: […]

[8] = tested on: Chilo suppressalis (Striped Rice Stemborer); assay: Example B4: Chilo suppressalis (striped rice stemborer), artificial diet, L2 larvae; conditions: 144 h, application rate 200 ppm, 6 days after infestation
Description: Example B4: Chilo suppressalis (Striped Rice Stemborer)
24-well microtiter plates with artificial diet were treated with aqueous test solutions prepared from 10,000 ppm DMSO stock solutions by pipetting. After drying, the plates were infested with L2 larvae (6-8 per well). The samples were assessed for mortality, anti-feeding effect, and growth inhibition in comparison to untreated samples 6 days after infestation. Control of Chilo suppressalis by a test sample is given when at least one of the categories (i.e. mortality, anti-feedant effect, and growth inhibition) is higher than the untreated sample.

[9] = tested on: Myzus persicae (Green Peach Aphid); assay: Example B6: Myzus persicae (green peach aphid), feeding/contact activity; conditions: 144 h, application rate 200 ppm, 6 days after infestation
Description: Example B6: Myzus persicae (Green Peach Aphid):Feeding/Contact Activity
Sunflower leaf discs were placed onto agar in a 24-well microtiter plate and sprayed with aqueous test solutions prepared from 10,000 ppm DMSO stock solutions. After drying, the leaf discs were infested with an aphid population of mixed ages. The samples were assessed for mortality 6 days after infestation.

[10] = tested on: Spodoptera littoralis (Egyptian Cotton Leaf Worm); assay: Example B9: Spodoptera littoralis (Egyptian cotton leaf worm), cotton leaf discs sprayed, L1 larvae; conditions: foliar, 72 h, application rate 200 ppm, 3 days after infestation
Description: Example B9: Spodoptera littoralis (Egyptian Cotton Leaf Worm)
Cotton leaf discs were placed onto agar in 24-well microtiter plates and sprayed with aqueous test solutions prepared from 10,000 ppm DMSO stock solutions. After drying the leaf discs were infested with five L1 larvae. The samples were assessed for mortality, anti-feeding effect, and growth inhibition in comparison to untreated samples 3 days after infestation. Control of Spodoptera littoralis by a test sample is given when at least one of the three categories (i.e. mortality, anti-feedant effect, and growth inhibition) is higher than the untreated sample.

CC(c1ncnn1-c1ncccn1)N(CC1CC1)C(=O)c1cc(C2CC2)nc(C(F)(F)F)c1 (centres unmarked) [P55, 2-cyclopropyl-N-(cyclopropylmethyl)-N-[1-(2-pyrimidin-2-yl-1,2,4-triazol-3-yl)ethyl]-6-(trifluoromethyl)pyridine-4-carboxamide]
≥ 80%: percent effect (mortality or growth inhibition) at 200 ppm [1] | percent effect (mortality or growth inhibition) at 200 ppm [2] | percent effect (mortality or growth inhibition) at 200 ppm [3] | mortality at 12 ppm [4] | percent effect (mortality, anti-feeding or growth inhibition) at 12.5 ppm [5] | mortality at 50 ppm [6] | mortality at 500 ppm [7]

C[C@@H](c1ncnn1-c1ncccn1)N(CC1CC1)C(=O)c1cc(C2CC2)cc(C(F)(F)F)c1 [P73, 3-cyclopropyl-N-(cyclopropylmethyl)-N-[(1S)-1-(2-pyrimidin-2-yl-1,2,4-triazol-3-yl)ethyl]-5-(trifluoromethyl)benzamide]
≥ 80%: percent effect (mortality or growth inhibition) at 200 ppm [1] | percent effect (mortality or growth inhibition) at 200 ppm [2] | percent control (mortality, anti-feedant effect or growth inhibition) at 200 ppm [8] | percent effect (mortality or growth inhibition) at 200 ppm [3] | mortality at 200 ppm [9] | mortality at 12 ppm [4] | percent control (mortality, anti-feedant effect or growth inhibition) at 200 ppm [10]

CC(NC(=O)c1cc(C2CC2)cc(C(F)(F)F)c1)c1ncnn1-c1ncc(Br)cn1 (centres unmarked) [P81, N-[1-[2-(5-bromopyrimidin-2-yl)-1,2,4-triazol-3-yl]ethyl]-3-cyclopropyl-5-(trifluoromethyl)benzamide]
≥ 80%: percent effect (mortality or growth inhibition) at 200 ppm [1] | percent effect (mortality or growth inhibition) at 200 ppm [2] | percent control (mortality, anti-feedant effect or growth inhibition) at 200 ppm [8] | percent effect (mortality or growth inhibition) at 200 ppm [3] | percent control (mortality, anti-feedant effect or growth inhibition) at 200 ppm [10]

Cc1nc(C(C)NC(=O)c2cc(C(F)(F)F)cc(C(C)(C)C#N)c2)n(-c2ncc(Br)cn2)n1 (centres unmarked) [P77, N-[1-[2-(5-bromopyrimidin-2-yl)-5-methyl-1,2,4-triazol-3-yl]ethyl]-3-(1-cyano-1-methyl-ethyl)-5-(trifluoromethyl)benzamide]
≥ 80%: percent effect (mortality or growth inhibition) at 200 ppm [1] | percent effect (mortality or growth inhibition) at 200 ppm [2] | percent control (mortality, anti-feedant effect or growth inhibition) at 200 ppm [8] | percent effect (mortality or growth inhibition) at 200 ppm [3] | mortality at 12 ppm [4] | percent control (mortality, anti-feedant effect or growth inhibition) at 200 ppm [10]

Cc1nc(C(C)NC(=O)c2cc(C3CC3)cc(C(F)(F)F)c2)n(-c2ncc(Br)cn2)n1 (centres unmarked) [P80, N-[1-[2-(5-bromopyrimidin-2-yl)-5-methyl-1,2,4-triazol-3-yl]ethyl]-3-cyclopropyl-5-(trifluoromethyl)benzamide]
≥ 80%: percent effect (mortality or growth inhibition) at 200 ppm [1] | percent effect (mortality or growth inhibition) at 200 ppm [2] | percent control (mortality, anti-feedant effect or growth inhibition) at 200 ppm [8] | percent effect (mortality or growth inhibition) at 200 ppm [3] | percent control (mortality, anti-feedant effect or growth inhibition) at 200 ppm [10]

CC(NC(=O)c1cc(C(F)(F)F)cc(C2(C)CC2(F)F)c1)c1ncnn1-c1ncccn1 (centres unmarked) [P88, 3-(2,2-difluoro-1-methyl-cyclopropyl)-N-[1-(2-pyrimidin-2-yl-1,2,4-triazol-3-yl)ethyl]-5-(trifluoromethyl)benzamide]
≥ 80%: percent effect (mortality or growth inhibition) at 200 ppm [1] | percent effect (mortality or growth inhibition) at 200 ppm [2] | percent control (mortality, anti-feedant effect or growth inhibition) at 200 ppm [8] | percent effect (mortality or growth inhibition) at 200 ppm [3] | mortality at 12 ppm [4] | percent control (mortality, anti-feedant effect or growth inhibition) at 200 ppm [10] | mortality at 50 ppm [6]

CC(NC(=O)c1cc(OCC(F)F)cc(C2CC2)c1)c1ncnn1-c1ncccn1 (centres unmarked) [P61, 3-cyclopropyl-5-(2,2-difluoroethoxy)-N-[1-(2-pyrimidin-2-yl-1,2,4-triazol-3-yl)ethyl]benzamide]
≥ 80%: percent effect (mortality or growth inhibition) at 200 ppm [2] | percent control (mortality, anti-feedant effect or growth inhibition) at 200 ppm [8] | percent effect (mortality or growth inhibition) at 200 ppm [3] | mortality at 200 ppm [9] | mortality at 12 ppm [4] | percent control (mortality, anti-feedant effect or growth inhibition) at 200 ppm [10]

CC(NC(=O)c1cc(C2CC2)cc(C(F)(F)F)c1)c1ncnn1-c1ncccn1 (centres unmarked) [P24, 3-cyclopropyl-N-[1-(2-pyrimidin-2-yl-1,2,4-triazol-3-yl)ethyl]-5-(trifluoromethyl)benzamide]
≥ 80%: percent effect (mortality or growth inhibition) at 200 ppm [1] | percent effect (mortality or growth inhibition) at 200 ppm [2] | percent effect (mortality or growth inhibition) at 200 ppm [3] | mortality at 200 ppm [9] | mortality at 12 ppm [4] | percent control (mortality, anti-feedant effect or growth inhibition) at 200 ppm [10] | mortality at 50 ppm [6] | mortality at 500 ppm [7]

CC(NC(=O)c1cc(C(F)(F)F)cc(C(C)(C)C#N)c1)c1ncnn1-c1ccccn1 (centres unmarked) [P75, 3-(1-cyano-1-methyl-ethyl)-N-[1-[2-(2-pyridyl)-1,2,4-triazol-3-yl]ethyl]-5-(trifluoromethyl)benzamide]
≥ 80%: percent effect (mortality or growth inhibition) at 200 ppm [1] | percent control (mortality, anti-feedant effect or growth inhibition) at 200 ppm [8] | percent effect (mortality or growth inhibition) at 200 ppm [3] | mortality at 12 ppm [4] | percent control (mortality, anti-feedant effect or growth inhibition) at 200 ppm [10]

Cc1nc(C(C)NC(=O)c2cc(C3CC3)cc(C(F)(F)F)c2)n(-c2ncccn2)n1 (centres unmarked) [P86, 3-cyclopropyl-N-[1-(5-methyl-2-pyrimidin-2-yl-1,2,4-triazol-3-yl)ethyl]-5-(trifluoromethyl)benzamide]
≥ 80%: percent effect (mortality or growth inhibition) at 200 ppm [1] | percent effect (mortality or growth inhibition) at 200 ppm [2] | percent control (mortality, anti-feedant effect or growth inhibition) at 200 ppm [8] | percent effect (mortality or growth inhibition) at 200 ppm [3] | mortality at 12 ppm [4] | percent control (mortality, anti-feedant effect or growth inhibition) at 200 ppm [10]
